Read-outs that look alike come from different tables or passages of the source.
Experiments:
[1] = tested on: femoral artery; test: Effect on blood flow volume of femoral artery of dog; assay type: in vivo, dog of mixed breed; conditions: 1 mg/Kg intravenous, anesthetized dog; for change in vivo at 1 mg/kg: Canis lupus familiaris, iv, read-out: Increased Blood Flow Volume in Femoral Artery
Method: (§1) The effect of the isoquinolinesulfonyl derivatives and the pharmaceutically acceptable acid addition salts of this invention on the vasodilatation of the femoral and vertebral arteries can be measured by anesthetizing a dog of mixed breed weighting 8 to 15 Kg by an intravenous administration of 35 mg/Kg of pentbarbital, providing an acute type probe (a product of Nippon Koden K.K., Japan) with the femoral and vertebral arteries, administering the isoquinolinesulfonyl derivatives and the pharmaceutically acceptable acid addition salts to the femoral vein through a polyethylene tube inserted into the femoral vein side chain and measuring the blood flow volume with an electromagnetic flowmeter (a product of Nippon Koden K.K., Japan, "MF-27"). Among the isoquinolinesulfonyl compounds of Formula (I) of this invention, those with l=0 and the [drawing 37] group show a high action for increasing blood flow and simultaneously a selectivity to vertebral arteries. For example, when 1 mg/Kg of 1-(5-isoquinolinesulfonyl)piperazine, i.e., Compound (35) was intravenously administered, the increased blood flow volumes in the vertebral artery and in the femoral artery were 98% and 65%, respectively. Also the isoquinolinesulfonyl compounds of Formula (I) of this invention with l=1 and one of the R2 and R3 groups=a hydrogen atom show a continuing blood flow increase. With 1 mg/Kg of N-(2-aminoethyl)-5-isoquinolinesulfonamide, i.e., Compound (1), an increase in the blood flow volume in the vertebral artery was continued for at least 30 minutes.
(§2) The effect on the vasodilatation of the femoral and vertebral arteries was measured by anesthetizing a dog of mixed breed weighing 8 to 15 Kg by an intravenous administration of 35 mg/Kg of pentabarbital, providing an acute type probe (a product of Nippon Koden K.K., Japan) with the femoral and vertebral arteries, administering the 5-isoquinolinesulfonyl derivatives and their pharmaceutically acceptable acid addition salts to the femoral vein through a polyethylene tube inserted into the femoral vein side chain and measuring the blood flow volume with an electromagnetic blood flowmeter (a product of Nippon Koden K.K., Japan, "MF-27").

[2] = tested on: vertebral artery; test: Effect on blood flow volume of vertebral artery of dog; assay type: in vivo, dog of mixed breed; conditions: 1 mg/Kg intravenous; for change in vivo at 1 mg/kg: Canis lupus familiaris, read-out: Increased Blood Flow Volume in Vertebral Artery
Method: as §1, §2

[3] = Acute toxicity, intravenous administration to male ddY-strain mice; conditions: mouse, in vivo
Method: The acute toxicity of the 5-isoquinolinesulfonyl derivatives and their pharmaceutically acceptable acid addition salts were measured by giving male ddY-strain mice an intravenous administration.

[4] = tested on: mesenteric artery; test: Relaxation of mesenteric artery (helical strips contracted with KCl, organ bath); parameters: species or system rabbit (home bred, Japanese species); conditions: Oryctolagus cuniculus, read-out: Relaxation of Mesenteric Artery ED50
Method: After a home bred rabbit of a Japanese species weighing about 3 Kg was subjected to bloodletting, resulting in death and then to abdominal incision, the mesenteric artery was taken out, cut into helicoids of 2 mm×25 mm and suspended in a 20 ml organ bath filled with a Krebs-Henseleit solution into which a mixed gas of 95% by volume of O2 and 5% by volume of CO2 was introduced and one end of the artery was connected with an isometric transducer. When a load of 1.5 g was applied to the artery, the contraction and the relaxation of the artery were recorded as a weight on the transducer (a product of Nippon Koden K.K., Japan, "FD Pickup TB-912T"). The relaxation of the mesenteric artery was observed by adding the isoquinolinesulfonyl derivatives and their pharmaceutically acceptable acid addition salts of this invention to the mesenteric artery at the condition of about one half of the maximum contraction with KCl at a KCl concentration of 15~20 mM. When the complete relaxation of the mesenteric artery was designated 100%, the concentration of the isoquinolinesulfonyl derivatives and their pharmaceutically acceptable acid addition salts which brought about a relaxation of 50% is shown in Table 12.

[5] = concentration for 50% relaxation, KCl 15~20 mM contraction

| Compound | EC50 [4, 5] | other results |
| --- | --- | --- |
| NCCNS(=O)(=O)c1cccc2cnccc12 [Compound 1] | – | change in vivo at 1 mg/kg [1]: 30%; change in vivo at 1 mg/kg ([2]; anesthetized dog): 45%; LD50 [3]: 108 mg/kg |
| NCCCCNS(=O)(=O)c1cccc2cnccc12 [Compound 3] | – | change in vivo at 1 mg/kg [1]: 33%; change in vivo at 1 mg/kg ([2]; anesthetized dog): 36%; LD50 [3]: 87 mg/kg |
| CCCCN(CCCC)CCCNS(=O)(=O)c1cccc2cnccc12 [Compound 19] | – | change in vivo at 1 mg/kg [1]: 25%; change in vivo at 1 mg/kg ([2]; anesthetized dog): 20%; LD50 [3]: 180 mg/kg |
| CNS(=O)(=O)c1cccc2cnccc12 [Compound 25] | – | change in vivo at 1 mg/kg [1]: 38%; change in vivo at 1 mg/kg ([2]; anesthetized dog): 29%; LD50 [3]: 137 mg/kg |
| O=S(=O)(c1cccc2cnccc12)N1CCCC1 [Compound 33] | – | change in vivo at 1 mg/kg [1]: 35%; change in vivo at 1 mg/kg ([2]; anesthetized dog): 37%; LD50 [3]: 150 mg/kg |
| NCCNS(=O)(=O)c1cccc2cnccc12 [Compound (1), N-(2-aminoethyl)-5-isoquinolinesulfonamide] | 5 µM | Duration of increase in the blood flow volume in the vertebral artery ([2]; dog): at least 30 minutes |
| CCCCNS(=O)(=O)c1cccc2cnccc12 [Compound (27), N-n-Butyl-5-isoquinolinesulfonamide] | 21 µM | – |
| CC(C)CNS(=O)(=O)c1cccc2cnccc12 [Compound (28), N-isobutyl-5-isoquinolinesulfonamide] | 19 µM | – |
| CN(C)S(=O)(=O)c1cccc2cnccc12 [Compound (29), N,N-dimethyl-5-isoquinolinesulfonamide] | 13 µM | – |
| CCN(CC)S(=O)(=O)c1cccc2cnccc12 [Compound (30), N,N-diethyl-5-isoquinolinesulfonamide] | 8.9 µM | – |
| CCCCN(CCCC)S(=O)(=O)c1cccc2cnccc12 [Compound (31), N,N-di-n-butyl-5-isoquinolinesulfonamide] | 28 µM | – |
| O=S(=O)(c1cccc2cnccc12)N1CCCCC1 [Compound (32), 1-(5-isoquinolinesulfonyl)piperidine] | 16 µM | – |
| O=S(=O)(c1cccc2cnccc12)N1CCCC1 [Compound (33), 1-(5-isoquinolinesulfonyl)pyrrolidine] | 11 µM | – |
| O=S(=O)(c1cccc2cnccc12)N1CCOCC1 [Compound (34), 1-(5-isoquinolinesulfonyl)morpholine] | 10 µM | – |
| O=S(=O)(c1cccc2cnccc12)N1CCNCC1 [Compound (35), 1-(5-isoquinolinesulfonyl)piperazine] | 0.6 µM | Increased Blood Flow Volume in Femoral Artery [1]: 65%; Increased Blood Flow Volume in Vertebral Artery ([2]; anesthetized dog): 98% |
| CN1CCN(S(=O)(=O)c2cccc3cnccc23)CC1 [Compound (36), 1-(5-isoquinolinesulfonyl)-4-methylpiperazine] | 7.7 µM | – |
| CC1CN(S(=O)(=O)c2cccc3cnccc23)CCN1 (centres unmarked) [Compound (37), 1-(5-isoquinolinesulfonyl)-3-methylpiperazine] | 4 µM | – |
| CC1CNCCN1S(=O)(=O)c1cccc2cnccc12 (centres unmarked) [Compound (38), 1-(5-isoquinolinesulfonyl)-2-methylpiperazine] | – | EC50 [4]: 5 µM |
| CC1CN(S(=O)(=O)c2cccc3cnccc23)CC(C)N1 (centres unmarked) [Compound (39), 1-(5-isoquinolinesulfonyl)-3,5-dimethylpiperazine] | 9.5 µM | – |
| CC1CN(S(=O)(=O)c2cccc3cnccc23)C(C)CN1 (centres unmarked) [Compound (40), 1-(5-isoquinolinesulfonyl)-2,5-dimethylpiperazine] | 0.6 µM | – |
| CC1NCCN(S(=O)(=O)c2cccc3cnccc23)C1C (centres unmarked) [Compound (41), 1-(5-isoquinolinesulfonyl)-2,3-dimethylpiperazine] | 1.5 µM | – |
| CCN1CCN(S(=O)(=O)c2cccc3cnccc23)CC1 [Compound (42), 1-(5-isoquinolinesulfonyl)-4-ethylpiperazine] | 18 µM | – |

| Compound | EC50 [4, 5] | other results |
| --- | --- | --- |
| CCC1CN(S(=O)(=O)c2cccc3cnccc23)CCN1 (centres unmarked) [Compound (43), 1-(5-isoquinolinesulfonyl)-3-ethylpiperazine] | 6.1 µM | – |
| CCCN1CCN(S(=O)(=O)c2cccc3cnccc23)CC1 [Compound (44), 1-(5-isoquinolinesulfonyl)-4-n-propylpiperazine] | 8.6 µM | – |
| CC(C)C1CN(S(=O)(=O)c2cccc3cnccc23)CCN1 (centres unmarked) [Compound (45), 1-(5-isoquinolinesulfonyl)-3-isopropylpiperazine] | 7.5 µM | – |
| CC(C)CC1CN(S(=O)(=O)c2cccc3cnccc23)CCN1 (centres unmarked) [Compound (46), 1-(5-isoquinolinesulfonyl)-3-isobutylpiperazine] | 6.5 µM | – |
| CC(C)CN1CCN(S(=O)(=O)c2cccc3cnccc23)CC1 [Compound (47), 1-(5-isoquinolinesulfonyl)-4-isobutylpiperazine] | 24 µM | – |
| CCC1CN(S(=O)(=O)c2cccc3cnccc23)C(CC)CN1 (centres unmarked) [Compound (48), 1-(5-isoquinolinesulfonyl)-2,5-diethylpiperazine] | 1.8 µM | – |
| CC(C)CC1CN(S(=O)(=O)c2cccc3cnccc23)C(C)CN1 (centres unmarked) [Compound (49), 1-(5-isoquinolinesulfonyl)-2-methyl-5-isobutylpiperazine] | 10 µM | – |
| CC1CNC(Cc2ccccc2)CN1S(=O)(=O)c1cccc2cnccc12 (centres unmarked) [Compound (50), 1-(5-isoquinolinesulfonyl)-2-methyl-5-benzylpiperazine] | 16 µM | – |
| CCCCCCN1CCN(S(=O)(=O)c2cccc3cnccc23)CC1 [Compound (51), 1-(5-isoquinolinesulfonyl)-4-hexylpiperazine] | 19 µM | – |
| O=S(=O)(c1cccc2cnccc12)N1CCNC(c2ccccc2)C1 (centres unmarked) [Compound (53), 1-(5-isoquinolinesulfonyl)-3-phenylpiperazine] | 7 µM | – |
| O=S(=O)(c1cccc2cnccc12)N1CCNC(Cc2ccccc2)C1 (centres unmarked) [Compound (54), 1-(5-isoquinolinesulfonyl)-3-benzylpiperazine] | 11 µM | – |
| O=S(=O)(c1cccc2cnccc12)N1CCN(c2ccccc2)CC1 [Compound (55), 1-(5-isoquinolinesulfonyl)-4-phenylpiperazine] | 9 µM | – |
| O=S(=O)(c1cccc2cnccc12)N1CCN(Cc2ccccc2)CC1 [Compound (56), 1-(5-isoquinolinesulfonyl)-4-benzylpiperazine] | 23 µM | – |
| O=S(=O)(c1cccc2cnccc12)N1CCN(CCc2ccccc2)CC1 [Compound (57), 1-(5-isoquinolinesulfonyl)-4-phenethylpiperazine] | 12 µM | – |
| O=C(c1ccccc1)N1CCN(S(=O)(=O)c2cccc3cnccc23)CC1 [Compound (58), 1-(5-isoquinolinesulfonyl)-4-benzoylpiperazine] | 40 µM | – |
| O=S(=O)(c1cccc2cnccc12)N1CCN(CC=Cc2ccccc2)CC1 [Compound (59), 1-(5-isoquinolinesulfonyl)-4-cinnamylpiperazine] | 6.8 µM | – |
| O=C(C=Cc1ccccc1)N1CCN(S(=O)(=O)c2cccc3cnccc23)CC1 [Compound (60), 1-(5-isoquinolinesulfonyl)-4-cinnamoylpiperazine] | 27 µM | – |
| O=C(c1ccco1)N1CCN(S(=O)(=O)c2cccc3cnccc23)CC1 [Compound (61), 1-(5-isoquinolinesulfonyl)-4-furoylpiperazine] | 24 µM | – |
| CCOC(CN1CCN(S(=O)(=O)c2cccc3cnccc23)CC1)c1ccccc1 (centres unmarked) [Compound (63), 1-(5-isoquinolinesulfonyl)-4-(2-ethoxy-2-phenylethyl)piperazine] | 13 µM | – |
| CN(CCNS(=O)(=O)c1cccc2cnccc12)Cc1ccccc1 [Compound (65), N-[2-(N-methyl-N-benzylamino)ethyl]-5-isoquinolinesulfonamide] | 13 µM | – |
| CC(C)N(CCNS(=O)(=O)c1cccc2cnccc12)Cc1ccccc1 [Compound (67), N-[2-(N-isopropyl-N-benzylamino)ethyl]-5-isoquinolinesulfonamide] | 18 µM | – |

Reference: US4525589A, “Isoquinolinesulfonyl derivatives” (Asahi Kasei Kogyo Kabushiki Kaisha, priority 1981, dated 1985)
